Some test systems named below: 786-0; A549; CAKI-1; CCRF-CEM; HCT-116; HL-60; HOP-92; IGROV-1; OVCAR-3; OVCAR-8; SF-295; SF-539; SK-MEL-5; SN12C; UACC-257; UACC-62; Hs-578T; NCI/ADR-RES; PC-3.
Test in all cases: growth of human tumour cells (NCI), 48 h

Consider 12 compounds from ChEMBL document CHEMBL1201862, “PubChem BioAssay data set” (2004).

Molecules are shown by their SMILES.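 Tested at 5 concentrations; 48 h exposure; 96-well plates; endpoints linearly interpolated, else capped at highest concentration. Abbreviation: GI50, concentration required for 50% inhibition of growth.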 Active and inactive are the calls of the source. No stated cut-off is given here; in the data, active = GI50 up to about 1.1 µM and inactive = higher. A value given as a limit tells only on which side of the number the result lay.

Regarding `Cc1ccc(C)c(N2C(=O)C(=O)C(c3nc4ccccc4o3)C(=O)C2=O)c1`, the GI50 in the experiment with 786-0 was > 100 µM (inactive); in the experiment with A549, > 100 µM (inactive); with CAKI-1 it was > 100 µM (inactive); with CCRF-CEM, 17 µM (inactive); in the experiment on HCT-116 it was 27.1 µM (inactive); with HL-60, 17.3 µM (inactive). Further, the GI50 was 92 µM (inactive) in the experiment with HOP-92; 35.9 µM (inactive) with IGROV-1; 39.4 µM (inactive) with OVCAR-3; > 100 µM (inactive) with OVCAR-8; > 100 µM (inactive) in the experiment on SF-295; > 100 µM (inactive) in the experiment on SF-539. The GI50 was 67.5 µM (inactive) in the experiment on SK-MEL-5, > 100 µM (inactive) in the experiment on SN12C, 32 µM (inactive) in the experiment on UACC-257 and 43.9 µM (inactive) with UACC-62.

For the compound `CC1=COC(C)(C=C(C#N)C#N)CC1` (stereo not given), the GI50 in the experiment on 786-0 was > 100 µM (inactive); with A549 it was > 100 µM (inactive); in the experiment on CCRF-CEM it was 35.3 µM (inactive); with HCT-116, 33 µM (inactive); in the experiment with HL-60 it was 21.1 µM (inactive); with HOP-92, > 10 µM (inactive). Further, the GI50 in the experiment on Hs-578T is 15.4 µM (inactive); with IGROV-1 it was 88.3 µM (inactive); in the experiment on NCI/ADR-RES, 48.4 µM (inactive); with OVCAR-8 it was 52.6 µM (inactive); with SF-295, > 100 µM (inactive); with SF-539 it was 25.1 µM (inactive). The GI50 was 58.1 µM (inactive) in the experiment on SK-MEL-5, 49.9 µM (inactive) in the experiment with SN12C, 57.3 µM (inactive) in the experiment with UACC-257 and 57.7 µM (inactive) with UACC-62.

Regarding `CC1=CC(=O)CCC2(C)C1CC[C@@H]2OC=O` (stereo not given in full), the GI50 in the experiment with 786-0, in the experiment on A549, in the experiment on CAKI-1, in the experiment with CCRF-CEM, in the experiment with HCT-116 and with HL-60 was > 100 µM (inactive) each time. Moreover, the GI50 in the experiment with HOP-92, with IGROV-1, with OVCAR-3, in the experiment on OVCAR-8, with SF-295 and in the experiment with SF-539 was > 100 µM (inactive) throughout. Further, the GI50 in the experiment on SK-MEL-5, in the experiment with SN12C, in the experiment on UACC-257 and in the experiment on UACC-62 was > 100 µM (inactive) each time.

In the case of `Cc1ccc(C2(c3ccc(C)cc3)SC(=C(C#N)C#N)c3ccccc32)cc1`, the GI50 in the experiment with 786-0 is > 100 µM (inactive); in the experiment with A549, > 100 µM (inactive); with CCRF-CEM it was 58.3 µM (inactive); in the experiment on HCT-116, 13.2 µM (inactive); with HL-60, 26.3 µM (inactive); in the experiment with HOP-92, > 100 µM (inactive). The GI50 in the experiment with Hs-578T is > 100 µM (inactive); in the experiment with IGROV-1, > 100 µM (inactive); in the experiment on NCI/ADR-RES, 45.6 µM (inactive); in the experiment on OVCAR-3, > 100 µM (inactive); in the experiment on OVCAR-8, > 100 µM (inactive); in the experiment on PC-3 it was 83.9 µM (inactive). Also, the GI50 in the experiment on SF-295 is 97.9 µM (inactive); with SF-539 it was > 100 µM (inactive); with SK-MEL-5, > 100 µM (inactive); with SN12C it was > 100 µM (inactive); in the experiment with UACC-62 it was 53 µM (inactive).

`COc1cccc2nc3cc(C)c(C)cc3nc12`: the GI50 in the experiment on 786-0, in the experiment on A549, in the experiment with CAKI-1, in the experiment on CCRF-CEM, in the experiment with HCT-116 and with HL-60 was > 100 µM (inactive) throughout. The GI50 with HOP-92, with IGROV-1, in the experiment with OVCAR-3, in the experiment with OVCAR-8, with SF-295 and in the experiment on SF-539 was > 100 µM (inactive) each time. For the same compound, the GI50 was 97.5 µM (inactive) in the experiment on SK-MEL-5, > 100 µM (inactive) in the experiment on SN12C, > 100 µM (inactive) in the experiment on UACC-257 and > 100 µM (inactive) in the experiment on UACC-62.

As to `CN(C)C(=O)Nc1c([N+](=O)[O-])cc(C(F)(F)F)cc1[N+](=O)[O-]`, the GI50 in the experiment with 786-0 was > 100 µM (inactive); in the experiment on A549 it was 45 µM (inactive); in the experiment with CAKI-1, > 100 µM (inactive); with CCRF-CEM it was 79.1 µM (inactive); with HCT-116, 24.6 µM (inactive); in the experiment on HL-60, 19.4 µM (inactive). The GI50 is 53.5 µM (inactive) in the experiment on HOP-92; > 100 µM (inactive) in the experiment on IGROV-1; 19.5 µM (inactive) in the experiment with OVCAR-3; 40.4 µM (inactive) in the experiment with OVCAR-8; 63.4 µM (inactive) with SF-295; 42 µM (inactive) in the experiment on SF-539. Moreover, the GI50 in the experiment with SK-MEL-5 was 17.2 µM (inactive); in the experiment with SN12C, 45.7 µM (inactive); in the experiment on UACC-257 it was 27.8 µM (inactive); with UACC-62, 46.9 µM (inactive).

Regarding `Nc1nc2ncn(CC(O)COC(=O)c3ccccc3)c2c(=O)[nH]1` (stereo not given), the GI50 in the experiment with 786-0, in the experiment on A549, in the experiment on CAKI-1, in the experiment on CCRF-CEM, in the experiment with HCT-116 and with HL-60 was > 100 µM (inactive) throughout. Further, the GI50 with HOP-92, in the experiment on IGROV-1, in the experiment on OVCAR-3, with OVCAR-8, with SF-295 and in the experiment with SF-539 was > 100 µM (inactive) throughout. The GI50 in the experiment on SK-MEL-5, with SN12C, in the experiment with UACC-257 and with UACC-62 was > 100 µM (inactive) throughout.

As to `CS/C(c1ccccc1)=[N+](\[O-])Cc1ccccc1`, the GI50 is > 100 µM (inactive) in the experiment on 786-0; > 100 µM (inactive) in the experiment with A549; > 100 µM (inactive) in the experiment with CAKI-1; 39.4 µM (inactive) in the experiment on CCRF-CEM; > 100 µM (inactive) with HCT-116; > 100 µM (inactive) in the experiment on HL-60. Besides, the GI50 in the experiment on HOP-92, with IGROV-1, in the experiment with OVCAR-3, in the experiment on OVCAR-8, with SF-295 and with SF-539 was > 100 µM (inactive) each time. In addition, the GI50 with SK-MEL-5, with SN12C, with UACC-257 and with UACC-62 was > 100 µM (inactive) throughout.

Turning to `COc1cc(-c2c3c(cc4c2OCO4)[C@@H](Nc2ccc(-c4ccc(-c5ccc(N[C@@H]6c7cc8c(cc7C(c7cc(OC)c(O)c(OC)c7)[C@H]7C(=O)OC[C@H]67)OCO8)cc5)cc4)cc2)[C@H]2COC(=O)[C@@H]2C3)cc(OC)c1O` (stereo not given in full), the GI50 with 786-0 was 1.76 µM (inactive); in the experiment on A549 it was 3.22 µM (inactive); with CAKI-1, 2.65 µM (inactive); in the experiment on CCRF-CEM, 3.13 µM (inactive); with HCT-116, 1.73 µM (inactive); with HL-60, 2.4 µM (inactive). The GI50 in the experiment on HOP-92 is 4.55 µM (inactive); with Hs-578T, 2.6 µM (inactive); with IGROV-1, 1.1 µM (active); with NCI/ADR-RES, 1.85 µM (inactive); with OVCAR-3 it was 2.36 µM (inactive); in the experiment with OVCAR-8 it was 1.61 µM (inactive). The GI50 in the experiment with PC-3 was 2.04 µM (inactive); in the experiment with SF-295, 1.77 µM (inactive); in the experiment on SF-539 it was < 0.01 µM (active); in the experiment on SK-MEL-5 it was 2.28 µM (inactive); in the experiment with SN12C, 5.21 µM (inactive); in the experiment on UACC-257 it was 10.6 µM (inactive).

Consider `COc1cccc(NC(=O)C(C)(C)C)c1SSc1c(NC(=O)C(C)(C)C)cccc1OC`, for which the GI50 with 786-0 is 21.6 µM (inactive); in the experiment with A549, 44.9 µM (inactive); in the experiment on CAKI-1, > 42.5 µM (inactive); with CCRF-CEM it was 17.1 µM (inactive); in the experiment with HCT-116, 22.4 µM (inactive); in the experiment with HL-60, 20.3 µM (inactive). Besides, the GI50 in the experiment on HOP-92 is 36.1 µM (inactive); in the experiment on IGROV-1, > 81.1 µM (inactive); with OVCAR-3, 37.9 µM (inactive); with OVCAR-8, 19.3 µM (inactive); in the experiment with SF-295, 36.9 µM (inactive); in the experiment on SF-539 it was 20.8 µM (inactive). The GI50 with SK-MEL-5 was 44.1 µM (inactive); in the experiment with SN12C it was 24.2 µM (inactive); with UACC-257 it was 22.7 µM (inactive); in the experiment with UACC-62 it was 19.3 µM (inactive).

`NC(N)=NCCC[C@H](N)C(=O)NCC(=O)N[C@@H](CC(=O)O)c1ncc(NC(=O)C(F)(F)F)o1`: the GI50 with 786-0, in the experiment on A549, with CCRF-CEM, in the experiment on HCT-116, in the experiment on HL-60 and in the experiment with Hs-578T was > 25 µM (inactive) each time. For the same compound, the GI50 with IGROV-1, in the experiment on NCI/ADR-RES, in the experiment with OVCAR-3, with OVCAR-8, in the experiment with PC-3 and in the experiment on SF-295 was > 25 µM (inactive) each time. For the same compound, the GI50 in the experiment on SF-539, in the experiment with SK-MEL-5, with UACC-257 and in the experiment with UACC-62 was > 25 µM (inactive) in each case.

In the case of `CC(C)C(NCc1c2ccccc2[n+](C)c2ccccc12)C(=O)O` (stereo not given), the GI50 with 786-0 was 4.66 µM (inactive); in the experiment with A549 it was 8.22 µM (inactive); in the experiment on CAKI-1, 3.48 µM (inactive); in the experiment on CCRF-CEM it was 0.627 µM (active); in the experiment with HCT-116 it was 2.67 µM (inactive); with HL-60, 1.97 µM (inactive). The GI50 in the experiment with HOP-92 is 3.57 µM (inactive); in the experiment with IGROV-1, 8.59 µM (inactive); in the experiment with OVCAR-3 it was 5.81 µM (inactive); in the experiment with OVCAR-8, 3.78 µM (inactive); with SF-295, 6.76 µM (inactive); with SF-539 it was 5.94 µM (inactive). Moreover, the GI50 with SK-MEL-5 is 3.31 µM (inactive); with SN12C, 5.58 µM (inactive); in the experiment with UACC-257 it was 5.51 µM (inactive); in the experiment on UACC-62, 3.56 µM (inactive).
